Test results: BindingDB's records for doi:10.1021/jm00083a013 (1992)
Blank lines part the entries; values can stand above or below the compound they belong to.

Columns and labels:
[1] = biological target: Aminopeptidase N (Rattus norvegicus) (UniProt P15684); assay: Compound was evaluated for its inhibitory potency against purified membrane bound rat brain Aminopeptidase
[2] = biological target: T1, Aminopeptidase N (Rattus norvegicus, UniProt P15684); assay: ChEBML_35366
T1 sequence (P15684 whole entry): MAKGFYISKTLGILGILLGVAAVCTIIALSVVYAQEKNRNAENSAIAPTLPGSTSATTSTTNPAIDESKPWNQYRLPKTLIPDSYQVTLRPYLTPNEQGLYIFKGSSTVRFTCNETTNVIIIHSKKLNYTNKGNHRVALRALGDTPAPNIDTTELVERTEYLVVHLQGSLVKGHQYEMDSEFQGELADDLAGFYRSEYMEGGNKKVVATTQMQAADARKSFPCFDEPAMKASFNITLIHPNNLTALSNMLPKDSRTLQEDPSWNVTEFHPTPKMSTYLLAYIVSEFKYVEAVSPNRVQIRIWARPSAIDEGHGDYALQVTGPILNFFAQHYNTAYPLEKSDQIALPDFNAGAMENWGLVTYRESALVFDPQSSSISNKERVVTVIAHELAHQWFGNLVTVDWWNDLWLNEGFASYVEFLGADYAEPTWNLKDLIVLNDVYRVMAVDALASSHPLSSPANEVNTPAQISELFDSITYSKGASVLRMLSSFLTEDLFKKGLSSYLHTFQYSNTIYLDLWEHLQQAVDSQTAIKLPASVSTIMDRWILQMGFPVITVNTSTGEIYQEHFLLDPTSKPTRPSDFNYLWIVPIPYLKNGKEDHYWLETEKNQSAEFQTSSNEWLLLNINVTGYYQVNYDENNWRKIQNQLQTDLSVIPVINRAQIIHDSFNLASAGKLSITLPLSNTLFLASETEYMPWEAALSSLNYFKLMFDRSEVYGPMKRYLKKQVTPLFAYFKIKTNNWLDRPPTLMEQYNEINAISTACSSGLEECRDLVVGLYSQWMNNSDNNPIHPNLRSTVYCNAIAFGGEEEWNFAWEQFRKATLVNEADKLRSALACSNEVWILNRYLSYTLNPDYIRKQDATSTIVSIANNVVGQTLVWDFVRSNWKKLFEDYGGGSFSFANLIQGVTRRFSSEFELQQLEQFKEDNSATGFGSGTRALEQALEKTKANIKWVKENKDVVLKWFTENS
Description: Compound was evaluated for its inhibitory potency against purified membrane bound rat brain Aminopeptidase M (AP-M) using [3H]Leu-enkephalin as substrate

[3] = biological target: T2, Aminopeptidase B (Rattus norvegicus, UniProt O09175); assay: Compound was evaluated for its inhibitory potency against purified membrane bound rat brain Aminopeptidase B (AP-B) using L-lysine-beta napthylamide as substrate
T2 sequence (O09175 whole entry): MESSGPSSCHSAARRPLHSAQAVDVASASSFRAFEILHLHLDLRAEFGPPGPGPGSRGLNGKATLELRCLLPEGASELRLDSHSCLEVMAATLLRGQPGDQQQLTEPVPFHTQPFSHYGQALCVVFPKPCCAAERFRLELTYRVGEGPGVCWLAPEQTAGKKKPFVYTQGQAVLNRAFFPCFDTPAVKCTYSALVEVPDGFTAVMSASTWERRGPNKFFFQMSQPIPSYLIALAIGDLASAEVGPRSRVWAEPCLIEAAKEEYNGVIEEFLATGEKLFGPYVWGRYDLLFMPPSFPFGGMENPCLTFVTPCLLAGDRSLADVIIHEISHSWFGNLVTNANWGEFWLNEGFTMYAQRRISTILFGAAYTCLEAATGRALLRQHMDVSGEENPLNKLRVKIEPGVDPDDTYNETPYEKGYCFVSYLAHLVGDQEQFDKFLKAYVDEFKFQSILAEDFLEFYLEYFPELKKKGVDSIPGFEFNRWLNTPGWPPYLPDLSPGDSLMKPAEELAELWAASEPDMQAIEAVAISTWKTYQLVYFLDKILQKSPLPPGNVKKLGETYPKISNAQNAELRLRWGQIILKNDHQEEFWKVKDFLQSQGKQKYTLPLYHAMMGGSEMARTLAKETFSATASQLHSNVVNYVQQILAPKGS

[4] = biological target: T2, Aminopeptidase B; assay: ChEBML_35343
Description: Compound was evaluated for its inhibitory potency against purified membrane bound rat brain Aminopeptidase B using L-lysine-beta napthylamide as substrate

- IC50 [1]: 2.01 µM
SMILES: COC(=O)[C@H](CC(C)C)NC(=O)[C@@H](O)[C@H](N)CCCCN

- IC50 [2]: > 1000 µM
- IC50 [3]: 500 µM
SMILES: COC(=O)[C@H](CC(C)C)NC(=O)[C@H](O)[C@@H](N)CCCCN

- IC50 [4]: 500 µM
SMILES: COC(=O)[C@H](Cc1c[nH]c2ccccc12)NC(=O)[C@H](O)[C@@H](N)CCCCN
